From patent publication US20060111305A1, “Metabolites of certain [1,4]diazepino[6,7,1-ij]quinoline derivatives and methods of preparation and use thereof” (Wyeth, priority 2004, published 2006)

Key:
[1] = Metabolite profiles of DCDQ in human plasma and urine by LC/MS (Table 33); assay type: in vivo, healthy human subjects; set-up: key to Matrix (in which DCDQ / metabolite was characterized by LC/MS): P = plasma; U = urine; details: for Matrix (in which DCDQ / metabolite was characterized by LC/MS): human plasma and urine, healthy subjects receiving DCDQ
Protocol: Drug administration and specimen collection were performed in a randomized, double-blinded, placebo-controlled, ascending single dose study of the safety, tolerability, pharmacokinetics, and pharmacodynamics of DCDQ administered orally to healthy subjects and subjects with schizophrenia and schizoaffective disorder. The specimens were stored at approximately −70° C. until analysis for metabolite profiles and for ratios of carbamoyl glucuronide (M6) to DCDQ.
Two subjects with medium and high exposure to DCDQ in the 25 mg multiple ascending dose study were also analyzed by LC/MS for metabolite profiles. The 8 hr plasma samples collected on day 1 and day 14 from subjects 9 and 41 were processed and analyzed as described below. No internal standard was added to the samples analyzed for metabolite profiles.
LC/MS System 1 was used for analysis of plasma and urine samples for metabolite characterization. The HPLC equipment used with this LC/MS System consisted of an Agilent Model 1100 HPLC system (Agilent Technologies, Palo Alto, Calif.) including an autosampler, binary pump and diode array UV detector. The UV detector was set to monitor 210 to 350 nm. The HPLC mobile phase consisted of 10 mM ammonium acetate, pH 4.5 (A) and methanol (B), and was delivered at 0.2 mL/min. The linear mobile phase gradient (HPLC Gradient 1) is shown below. During LC/MS sample analysis, up to 6 min of the initial flow was diverted away from the mass spectrometer prior to evaluation of metabolites.
The mass spectrometer used for metabolite characterization with LC/MS System 1 was a Finnigan LCQ-Deca ion trap mass spectrometer (Thermo Electron, San Jose, Calif.). This mass spectrometer was equipped with an electrospray ionization (ESI) interface and operated in the positive ionization mode. Settings for the LCQ mass spectrometer are listed below.
LC/MS System 2 was used to provide additional MS/MS data for characterization of DCDQ metabolites in urine. The HPLC equipment used with LC/MS System 2 consisted of a Waters model 2695 HPLC system (Waters Corp., Milford, Mass.). It was equipped with a built-in autosampler and a model 996 diode array UV detector. The UV detector was set to monitor 210-400 nm. The HPLC column, mobile phases, flow rate, diversion of flow away from the mass spectrometer and gradient were as described above for LC/MS System 1. The column temperature was 25° C.
The mass spectrometer used for metabolite characterization with LC/MS System 2 was a Micromass Quattro Micro triple quadrupole mass spectrometer (Waters Corp.). This mass spectrometer was equipped with an electrospray interface and operated in the positive ionization mode. Settings for this mass spectrometer are listed below.

[2] = Incubation of [14C]DCDQ with mouse liver microsomes; assay type: in vitro ADME, CD-1 mice
Protocol: [^14C]DCDQ was mixed with non-radiolabeled DCDQ (1:3 or 1:5) in the incubations. Microsomal incubations consisted of [^14C]DCDQ, magnesium chloride (10 mM) and liver microsomes incubated in 0.5 mL of 0.1 M potassium phosphate buffer, pH 7.4. [^14C]DCDQ (20 μL) in water was added to the incubation tubes containing buffer, magnesium chloride solution and microsomes. After mixing, the tubes were pre-incubated for 2 minutes in a shaking water bath at 37° C. The reactions were initiated by the addition of UDPGA or the NADPH regenerating system. UDPGA was added to incubations as a 50 μL aliquot of a 20 mM solution in water, to give a final concentration of 2 mM. An NADPH regenerating system (30 μL) was added to incubations to evaluate CYP450-mediated metabolism. The NADPH regenerating system consisted of glucose-6-phosphate (2 mg/mL), glucose-6-phosphate dehydrogenase (0.8 units/mL) and NADP^+ (2 mg/mL). Control incubations were conducted under the same conditions, but without the NADPH generating system, UDPGA or microsomes. All incubations were performed in duplicate. Incubations were stopped by the addition of 0.5 mL ice-cold methanol. Samples were vortex-mixed. Denatured proteins were separated by centrifugation at 4300 rpm and 4° C. for 10 minutes (Model T21 super centrifuge, Sorvall). The protein pellets were extracted with 0.5 mL of methanol. The supernatant was combined for each sample, mixed and evaporated to a volume of about 0.3 mL under a nitrogen stream in a Zymark TurboVap LV evaporator (Caliper Life Science, Hopkinton, Mass.). The concentrated sample was centrifuged and aliquots were radioassayed and analyzed by HPLC. This method recovered an average of 92.1% of the radioactivity from the reaction mixture.
To evaluate species differences in cytochrome P450- and UGT-mediated metabolism, [^14C]DCDQ was incubated for 20 minutes with 0.5 mg/mL liver microsomal proteins from mice, rats, dogs or humans in the presence of the NADPH regenerating system or UDPGA. The assay conditions were the same as described above, and DCDQ concentrations were 12 μM and 56 μM for cytochrome P450- and UGT-mediated metabolism, respectively.
A Waters model 2690 HPLC system (Waters Corp., Milford, Mass.) with a built-in autosampler was used for analysis. Separations were accomplished on a Phenomenex Luna C18(2) column (2×150 mm, 5 μm) (Phenomenex, Torrance, Calif.) coupled with a filter (4×2 mm) cartridge. A variable wavelength UV detector set to monitor 250 nm and Flo-One β Model A525 radioactivity flow detector (Perkin Elmer) with a 250 μL LQTR flow cell were used for data acquisition. The flow rate of Ultima Flow M scintillation fluid was 1 mL/min, providing a mixing ratio of scintillation cocktail to mobile phase of 5:1. […]

[3] = NADPH regenerating system, 12 μM DCDQ, 20 min

Matrix (in which DCDQ / metabolite was characterized by LC/MS) [1]	metabolite detected in microsomal incubation [2, 3]	metabolite detected in microsomal incubation ([2]; UDPGA, 56 μM DCDQ)	relative abundance in human plasma ([1]; all dose groups, single and multiple dose studies)	relative abundance in human urine ([1]; in vivo)	SMILES
P, U	not detected				OC1CN2C[C@@H]3CCC[C@@H]3c3cccc(c32)CN1 (stereo partly shown) [Metabolite M1, hydroxy DCDQ]
	only metabolite detected				OC1[C@@H]2CCC[C@@H]2c2cccc3c2N1CCNC3 (stereo partly shown) [Metabolite M2, hydroxy DCDQ]
P	not mouse or rat				[O-][N+]12CCN=Cc3cccc(c31)[C@H]1CCC[C@H]1C2 (stereo partly shown) [Metabolite M5, DCDQ imine N-oxide]
P, U		not mouse or rat	predominant drug-related component	predominant drug-related component	O=C(O)[C@H]1O[C@@H](OC(=O)N2CCN3C[C@@H]4CCC[C@@H]4c4cccc(c43)C2)[C@H](O)[C@@H](O)[C@@H]1O [Metabolite M6, carbamoyl glucuronide of DCDQ]

SMILES	Matrix (in which DCDQ / metabolite was characterized by LC/MS) [1]	metabolite detected in microsomal incubation [2, 3]	metabolite detected in microsomal incubation ([2]; UDPGA, 56 μM DCDQ)	relative abundance in human plasma ([1]; all dose groups, single and multiple dose studies)	relative abundance in human urine ([1]; in vivo)
c1cc2c3c(c1)[C@H]1CCC[C@H]1CN3CCNC2 [DCDQ, (9aR,12aS)-4,5,6,7,9,9a,10,11,12,12a-decahydro-cyclopenta[c][1,4]diazepine[6,7,1-ij]quinoline, reference compound]	P, U				
